Experimental data from the supplement of paper PMC10307832.

Experiments:
Test in all cases: relative viability (nuclei count vs DMSO), 5 days (fraction); higher = more cells survive
Alisertib + Pictilisib = compound: COc1cc(Nc2ncc3c(n2)-c2ccc(Cl)cc2C(c2c(F)cccc2OC)=NC3)ccc1C(=O)O [Alisertib] + CS(=O)(=O)N1CCN(Cc2cc3nc(-c4cccc5[nH]ncc45)nc(N4CCOCC4)c3s2)CC1 [Pictilisib] (partner 1 µM)
In short: (§1)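 Nuclei were stained with Hoechst during a one-step fixation (final 0.05% Triton X-100, 1% formaldehyde, 1 ug/ml Hoechst) carried out 5 days after dosing, then counted on 4× images. The cells, lung cancer lines in 1536-well plates, had been dosed by pin tool the day after seeding with one drug alone or a fixed anchor-drug dose plus five library-drug doses (not always all listed) in √10 steps. Relative viability is the nuclei count in treated wells divided by that in vehicle wells, and each value is the median of duplicate plates.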

Alisertib + Linsitinib = compound: COc1cc(Nc2ncc3c(n2)-c2ccc(Cl)cc2C(c2c(F)cccc2OC)=NC3)ccc1C(=O)O [Alisertib] + C[C@]1(O)C[C@@H](c2nc(-c3ccc4ccc(-c5ccccc5)nc4c3)c3c(N)nccn32)C1 [Linsitinib] (partner 1 µM)
In short: as §1

Alisertib + Alpelisib = compound: COc1cc(Nc2ncc3c(n2)-c2ccc(Cl)cc2C(c2c(F)cccc2OC)=NC3)ccc1C(=O)O [Alisertib] + Cc1nc(NC(=O)N2CCC[C@H]2C(N)=O)sc1-c1ccnc(C(C)(C)C(F)(F)F)c1 [Alpelisib] (partner 2 µM)
In short: as §1

Alisertib + Decitabine = compound: COc1cc(Nc2ncc3c(n2)-c2ccc(Cl)cc2C(c2c(F)cccc2OC)=NC3)ccc1C(=O)O [Alisertib] + Nc1ncn([C@H]2C[C@H](O)[C@@H](CO)O2)c(=O)n1 [Decitabine] (partner 2 µM)
In short: as §1

Cell Line | relative viability (Alisertib + Pictilisib; first compound 0.005 µM) | relative viability (Alisertib + Pictilisib; first compound 0.01581 µM) | relative viability (Alisertib + Pictilisib; first compound 0.05 µM) | relative viability (Alisertib + Pictilisib; first compound 0.1581 µM) | relative viability (Alisertib + Pictilisib; first compound 0.5 µM) | relative viability (Alisertib + Linsitinib; first compound 0.005 µM) | relative viability (Alisertib + Linsitinib; first compound 0.01581 µM) | relative viability (Alisertib + Linsitinib; first compound 0.05 µM) | relative viability (Alisertib + Linsitinib; first compound 0.1581 µM) | relative viability (Alisertib + Linsitinib; first compound 0.5 µM) | relative viability (Alisertib + Alpelisib; first compound 0.005 µM) | relative viability (Alisertib + Alpelisib; first compound 0.01581 µM) | relative viability (Alisertib + Alpelisib; first compound 0.05 µM) | relative viability (Alisertib + Alpelisib; first compound 0.1581 µM) | relative viability (Alisertib + Alpelisib; first compound 0.5 µM) | relative viability (Alisertib + Decitabine; first compound 0.005 µM) | relative viability (Alisertib + Decitabine; first compound 0.01581 µM) | relative viability (Alisertib + Decitabine; first compound 0.05 µM) | relative viability (Alisertib + Decitabine; first compound 0.1581 µM) | relative viability (Alisertib + Decitabine; first compound 0.5 µM)
NCI-H1944 | 0.327 | 0.35 | 0.351 | 0.21 | 0.205 | 1.23 | 1.33 | 0.971 | 0.508 | 0.265 | 0.788 | 0.882 | 0.626 | 0.41 | 0.207 | 0.401 | 0.436 | 0.324 | 0.266 | 0.186
HARA | 0.283 | 0.426 | 0.511 | 0.112 | 0.0803 | 1.03 | 0.919 | 0.361 | 0.189 | 0.0844 | 0.86 | 0.878 | 0.363 | 0.129 | 0.0864 | 0.524 | 0.58 | 0.334 | 0.208 | 0.145
NCI-H2126 | 0.452 | 0.502 | 0.367 | 0.28 | 0.226 | 0.709 | 0.752 | 0.467 | 0.342 | 0.256 | 0.746 | 0.746 | 0.384 | 0.322 | 0.246 | 0.528 | 0.558 | 0.326 | 0.268 | 0.553
LXF-289 | 0.701 | 0.565 | 0.576 | 0.103 | 0.0904 | 0.843 | 0.814 | 0.21 | 0.194 | 0.116 | 0.909 | 0.592 | 0.215 | 0.133 | 0.0979 | 0.325 | 0.352 | 0.183 | 0.154 | 0.146
NCI-H460 | 0.364 | 0.428 | 0.327 | 0.0613 | 0.0689 | 0.786 | 0.54 | 0.162 | 0.027 | 0.0144 | 0.456 | 0.451 | 0.149 | 0.0179 | 0.0099 | 0.441 | 0.408 | 0.0826 | 0.0385 | 0.0482
NCI-H1395 | 0.566 | 0.517 | 0.597 | 0.492 | 0.377 | 1.18 | 1.02 | 0.716 | 0.509 | 0.488 | 0.968 | 1.23 | 0.994 | 0.558 | 0.362 | 0.649 | 0.618 | 0.505 | 0.471 | 0.393
NCI-H2009 | 0.787 | 0.787 | 0.387 | 0.185 | 0.139 | 1.24 | 1.14 | 0.672 | 0.427 | 0.213 | 1.15 | 1.02 | 0.417 | 0.375 | 0.265 | 0.338 | 0.388 | 0.292 | 0.194 | 0.168
